The subject of one data set is human erythrocytes. As to the kind of experiment: Hemolytic activity assay. The class given is cell-based. The procedure: Hemolytic activity assay was performed according to previous research. Briefly, erythrocytes were triply and softly washed with 0.9% normal saline. Then cells were incubated with various concentrations of OA-GL12 for 30 min (37°C), while 0.1% Triton X-100 as maximum hemolysis. The absorbance of supernatant was read at 540 nm after centrifugation with 3000×g for 4 min at room temperature. The numeric data of hemolytic activity (%) was calculated by [(Asample) × 100]/Atriton x-100.

Data set [1] deals with HaCaT cells. Kind of data set: Cytotoxicity of Gefitinib on HaCaT cells. The class given is cell-based, human. To be noted: Gefitinib 1 μM, 24 h; data not shown.
Data set [2] has as its system HaCaT cells. As to the kind of experiment: Cellular wound healing (scratch) assay, HaCaT. The class given is cell-based, human. Conditions: MMC 10 µg/ml alone, 24 h; vehicle 53.39 ± 10.11%; mean ± S.D., n=9. The procedure:
(§1) Cellular wound healing activity assay was performed as previous research. Briefly, human keratinocytes (HaCaT) (KCB 200442YJ) and human skin fibroblasts (HSF) (KCB 200537) were provided by Conservation Genetics CAS Kunming Cell Bank of Kunming Institute of Zoology, the Chinese Academy of Sciences, and cultured in Dulbecco’s modified Eagle’s medium (DMEM, BI, Israel) with 10% FBS (BI, Israel) and penicillin (100 units/ml)–streptomycin (100 units/ml) in a humidified atmosphere of 5% CO2 (37°C). The possible mycoplasma contamination was excluded by the EZ-PCR mycoplasma contamination detection kit (20-700-20, BI). Cell monolayer formation was formed by culturing the HaCaT and HSF (2.5 × 10^5 cells/well) cells in 24-well plates for 12–24 h with serum starvation and then made to the mechanical scratch wound by a sterile pipette tip (Axygen, U.S.A.). After washing with PBS twice to detach dead cells, cells monolayer was then cultured for next periods (from 0 to 24 h) in a serum-free basal medium (500 μl) with the continued presence of OA-GL12. The same volume of DMEM without OA-GL12 was made as vehicle. […] Cell migration activity was expressed as the percentage of the gap relative to the full area of the scratch using ImageJ software (National Institutes of Health, Bethesda, MD, U.S.A.) to evaluate the repair rate of scarification.

Another data set concerns HSF cells. As to the kind of experiment: Cellular wound healing (scratch) assay, HSF. The class given is cell-based, human. Conditions: MMC 10 µg/ml alone, 24 h; vehicle 38.96 ± 3.34%; mean ± S.D., n=9. On the procedure: as §1
A short description of data set [3]: DPPH free radical scavenging. To be noted: 30 min, room temperature, A517. The format is physicochemical. On the procedure:
2,2′-azino-bis (3-ethylbenzothiazoline-6-sulphonic acid) (ABTS) and 2,2-diphenyl-1-picrythydrazyl (DPPH)) scavenging activities of OA-GL12 were assessed referring to previous studies. Briefly, a stock solution of ABTS radical was prepared by incubating 2.8 mM potassium persulphate (Sigma–Aldrich, St. Louis, MO, U.S.A.) with 7 mM ABTS in water for no less than 6 h in the dark, and used immediately. The stock solution was diluted 50-fold with double distilled water. Dissolved samples with ultrapure water were added to the diluted stock solution, while the same volume of solvent was used as the blank, and Vitamin C as the positive control. The reaction was in the dark for 30 min. […] Meanwhile, the assay mixture contained 190 μl of 5 × 10^−5 M DPPH radical (Sigma–Aldrich, St. Louis, MO, U.S.A.) dissolved in ethanol and 10 μl of sample solution. The mixture was then incubated in a 96-well microtiter plates at room temperature for 30 min. Subsequently, the absorbance was measured at 517 nm. The free radical scavenging activity (%) was calculated by (Ablank − Asample) × 100/Ablank.
Background: Loss of DPPH colour is used to gauge radical scavenging.

For data set [4], the system named is S. epidermidis (ATCC 12228). Kind of data set: Antimicrobial activity assay (agar hole diffusion). Further details: key: +: Possessing antimicrobial activity; -: Possessing no antimicrobial activity. To be noted: Amp (1 mg/ml), 7 μl in agar hole, 16–18 h, 37°C. The format is cell-based, Staphylococcus epidermidis. On the procedure:
(§2) The antimicrobial activity of OA-GL12 was performed based on our previous research. Briefly, fungal strain Candida albicans (ATCC 14053), Gram-positive bacterial strains Staphylococcus epidermidis (ATCC 12228), Staphylococcus haemolyticus (ATCC 29970), and Bacillus subtilis (ATCC 19659), Gram-negative bacterial strains Escherichia coli (ATCC 25922) were obtained from the Kunming Medical University. The microbes were cultivated in LB broth to OD600 = 0.8. A 10-μl aliquot of the bacteria was collected and added to fresh LB (10 ml) broth with 1% Type I agar (Sigma–Aldrich, St. Louis, MO, U.S.A.), and then poured into a 90-mm Petri dish. A micro hole was made after the agar was solidified, and a 7-μl aliquot of OA-GL12 (1 mM) was added to the hole. Petri dish was placed for 16–18 h at 37°C. As the symbol of antimicrobial activity, a clear zone appeared on the surface of the agar just like ampicillin (1 mg/ml), positive control, which represented the antimicrobial ability of OA-GL12.

In the next data set the test system is C. albicans (ATCC 14053). Kind of data set: Antimicrobial activity assay (agar hole diffusion). The class given is cell-based, Candida albicans. Also noted: key: +: Possessing antimicrobial activity; -: Possessing no antimicrobial activity. Conditions: Amp (1 mg/ml), 7 μl in agar hole, 16–18 h, 37°C. The procedure: as §2
The test system of data set [5] is S. haemolyticus (ATCC 29970). As to the kind of experiment: Antimicrobial activity assay (agar hole diffusion). The class given is cell-based, Staphylococcus haemolyticus. Also noted: key: +: Possessing antimicrobial activity; -: Possessing no antimicrobial activity. Conditions: Amp (1 mg/ml), 7 μl in agar hole, 16–18 h, 37°C. The procedure:
as §2

In another data set the test system is B. subtilis (ATCC 19659). Kind of data set: Antimicrobial activity assay (agar hole diffusion). The format is cell-based, Bacillus subtilis. Also noted: key: +: Possessing antimicrobial activity; -: Possessing no antimicrobial activity. To be noted: Amp (1 mg/ml), 7 μl in agar hole, 16–18 h, 37°C. The procedure: as §2
Another data set has as its system E. coli (ATCC 25922). As to the kind of experiment: Antimicrobial activity assay (agar hole diffusion). The class given is cell-based, Escherichia coli. Further details: key: +: Possessing antimicrobial activity; -: Possessing no antimicrobial activity. To be noted: Amp (1 mg/ml), 7 μl in agar hole, 16–18 h, 37°C. The procedure: as §2
Data set [6] deals with full-thickness skin wound mice. To be noted: in vivo.
Description: Adult male mice (22–25 g) from the same generation were purchased from Hunan SJA Laboratory Animal Co., Ltd (Certificate number 43004700043639, China). […] Mice were made full-thickness skin wound models after 7 days’ acclimation. Briefly, mice were anesthetized by intraperitoneal injection (i.p.) with 1% sodium pentobarbital (0.1 ml/20 g body weight). Dorsal hair were shaved by an electric clipper and sterilized with 75% alcohol. Two full-thickness skin wounds (8 × 8 mm) were surgically made on the back. After the surgery, the mice were placed in comfortable cages until they recovered from anesthesia. Nine mice were randomly divided into three groups. […] The left-sided wounds of the two groups were treated with the same volume of normal saline as vehicle, and the last group treated with 1 mg/ml KangFuXin (KFX, the ethanol extract of the American cockroach, Inner Mongolia Jingxin Pharmaceutical Co. Ltd, China, Z15020805) as positive control. Wounds were treated twice daily with samples and photographed at intervals of 2 days.
The condition of wounds was documented; then ImageJ software was used to estimate the wound areas (percentage of residual wound area to initial areas). […]
Another data set deals with mice. Kind of data set: Acute toxicity assay. The format is in vivo. To be noted: for Mortality (%): 3 male and 3 female mice, observed 2 weeks. On the procedure:
Two phases of acute toxicity were performed as previous study. Lethal concentration of OA-GL12 was tested at 5, 10, 25, and 50 μmol/kg by i.p. in mice, while using saline as negative control. The mortalities, toxic effects, and behavioral changes were observed and recorded for 2 weeks.

Where a SMILES comes first, the peptide text is derived from it.

As to Triton X-100, the “Hemolytic ratio (%)” value in the data set with human erythrocytes (0.1% Triton X-100 as maximum hemolysis, 30 min, 37°C, A540) was 100%.
Consider `COc1cc2ncnc(Nc3ccc(F)c(Cl)c3)c2cc1OCCCN1CCOCC1` [Gefitinib], for which the “cytotoxicity on HaCaT cells” value in the data set on HaCaT cells [1] is “no obvious cytotoxicity”.
On to `CO[C@@]12[C@H](COC(N)=O)C3=C(C(=O)C(C)=C(N)C3=O)N1C[C@@H]1N[C@@H]12` [MMC, mitomycin C], for which the “healing rate of HaCaT cell scratch” value in the data set on HaCaT cells [2] is 26.66 ± 4.64%. Moreover, in the data set with HSF cells, the “scratch healing of HSF cells” value worked out at 22.78 ± 5.22%.
`O=C1O[C@H]([C@@H](O)CO)C(O)=C1O` [Vitamin C]: the DPPH scavenging activity result in data set [3] (0.063 μM) was “nearly inactive”. Moreover, in data set [3] (1 μM, mean ± S.D., n=3), the DPPH scavenging worked out at 7.71 ± 0.56%.
As to `CC1(C)S[C@@H]2[C@H](NC(=O)[C@H](N)c3ccccc3)C(=O)N2[C@H]1C(=O)O` [Amp, ampicillin], the Antimicrobial activity result (in data set [4]; in the data set on C. albicans (ATCC 14053); in data set [5]; in the data set on B. subtilis (ATCC 19659); in the data set on E. coli (ATCC 25922)) was “+” in each case.
`CC[C@H](C)[C@H](NC(=O)CNC(=O)[C@H](CO)NC(=O)[C@H](CC(C)C)NC(=O)[C@H](CC(C)C)NC(=O)CN)C(=O)N[C@@H](CC(N)=O)C(=O)N[C@@H](C)C(=O)N[C@@H](CCC(=O)O)C(=O)N[C@@H](Cc1c[nH]c2ccccc12)C(=O)N1CCC[C@H]1C(=O)N[C@@H](CS)C(=O)O` [OA-GL12] (H-GLLSGINAEWPC-OH): the “adverse effects on mouse body weight, general health, or behavior” value in data set [6] is listed as “No adverse effects”. Also, the “Mortality (%)” value with mice (5 μmol/kg i.p.), in the data set on mice (10 μmol/kg i.p.), in the data set on mice (25 μmol/kg i.p.) and with mice (50 μmol/kg i.p.) was 0% in each case. In addition, the “death and abnormal behaviors (tremor, retardation, irritability, piloerection, stiffness of tail)” value in the data set with mice (i.p. injection, 2 weeks) is “no death and other abnormal behaviors”. The “hemolytic activity on human erythrocytes in vitro” value in the data set on human erythrocytes is listed as “negligible hemolytic activity”.

(Values after article PMC6430730, “A short peptide potentially promotes the healing of skin wound” (Bioscience Reports, 2019).)
